Reference: patent US20140135272A1, “NOVEL ZINC FINGER-LIKE PEPTIDE COMPOSITIONS AS POTENT AGENTS IN CANCER PREVENTION AND TREATMENT” (priority 2011, published 2014)

Tests used:
Assay type in all cases: in vivo, nude mice
[1] = system: BCC cells; assay: Example 2: peptide pre-injection plus boost injection, BCC cell inoculation, tumor volumes; settings: peptide 2 mM, 100 μl i.v. per week for 3 weeks before BCC inoculation; boost per week for 3 weeks 2 months later; vs H2O control
Method: (§1) In the following examples, 8-week nude mice were used as host subjects to perform in vivo experiments. The nude mice were placed in room temperature and suitable humidity, and supplied with sterile water and standard food for 2 consecutive weeks before performing experiments. Then, the nude mice were injected with zinc finger-like peptide and tumor cells. The detailed processes for the experiments are described as follows.
(§2) First, manually synthesized zinc finger-like peptide (Genemed Synthesis Inc., San Antonio, Tex., USA) was resuspended in degassed purified water to obtain 1-5 mM of zinc finger-like peptide solution (100 μl). Herein, the solution for suspending the zinc finger-like peptide is not particularly limited. Preferably, the zinc finger-like peptide is resuspended in degassed purified water, in order to prevent the self-polymerization of the zinc finger-like peptide and loss its ability to inhibit tumor cell growth.
(§3) In the present experimental group, zinc finger-like peptide with sequence shown in SEQ ID NO: 1 was injected into nude mice.
Nude mice were injected with an intravenous injection of peptide (2 mM, 100 μl PBS) via tail veins per week for 3 consecutive weeks, followed by inoculating BCC cells (2 million cells/100 μl PBS) at both the right and left flanks. 2 months later, boost injection of peptide was carried out per week for 3 consecutive weeks. […]

[2] = system: malignant melanoma B16F10; assay: Example 3: peptide pre-injection, then malignant melanoma B16F10 inoculation, tumor volumes; settings: peptide 2 mM, 100 μl sterile water i.v. per week for 3 weeks before B16F10 inoculation; vs H2O control
Method: as §1, §2
Herein, zinc finger-like peptide with sequence shown in SEQ ID NO: 1 is injected into nude mice.
With this experimental group, nude mice received an intravenous injection of peptide (2 mM, 100 μl sterile water) via tail veins per week for 3 consecutive weeks, followed by inoculation of malignant melanoma B16F10 (2 million cells/100 μl PBS) at both the right and left flanks. The tumor volumes (mm^3) were observed daily during the whole experiment. […]

[3] = system: breast carcinoma MDA-MB-468; assay: Example 7: peptide pre-injection, then breast carcinoma MDA-MB-468 inoculation, tumor volumes; settings: peptide 3 mM, 100 μl i.v. per week for 3 weeks before MDA-MB-468 inoculation; vs H2O control
Method: as §1, §2, §3
Nude mice were injected with an intravenous injection of peptide (3 mM, 100 μl) via tail veins per week for 3 consecutive weeks, followed by inoculating breast carcinoma MDA-MB-468 (2 million cells/100 μl medium) at both the right and left flanks. The tumor volumes (mm^3) were observed daily during the whole experiment. […]

[4] = system: malignant glioma U87-MG cells; assay: Example 11: peptide pre-injection, malignant glioma U87-MG cells inoculated 1 month later, tumor volumes; settings: for growth and proliferation of tumor cells (tumor volumes): 100 μl i.v. per week for 3 weeks, U87-MG inoculated 1 month later, vs H2O control
Method: as §1, §2
The process of the present control group was the same as that of the experimental group, except that the zinc finger-like peptide of the experimental group was substituted with H2O (100 μl) in the present control group. The result is shown in FIG. 11A, which is a curve representing the tumor volumes of mice.
as §3
Nude mice were injected with an intravenous injection of peptide (2 mM, 100 μl) via tail veins per week for 3 consecutive weeks, followed by inoculating malignant glioma U87-MG cells (2 million cells/100 μl medium) at both the right and left flanks 1 month later. The tumor volumes (mm^3) were observed daily during the whole experiment. The result is shown in FIG. 11B, which is a curve representing the tumor volumes of mice.
The process of the present control group was the same as that of the experimental group 1, except that the concentration of the zinc finger-like peptide is 4 mM. The result is shown in FIG. 11C, which is a curve representing the tumor volumes of mice.

[5] = system: malignant melanoma B 16F10; assay: Example 4: peptide variants pre-injected, then malignant melanoma B16F10 inoculation, tumor volumes and death; settings: peptide 2 mM, 100 μl i.v. per week for 2 weeks before B16F10 inoculation
Method: as §1, §2
Nude mice received an intravenous injection of peptide (2 mM, 100 μl) via tail veins per week for 2 consecutive weeks, followed by inoculating malignant melanoma B 16F10 (2 million cells/100 μl PBS) at both the right and left flanks. The tumor volumes (mm^3) were observed daily during the whole experiment.
as §3
In the present experimental group, zinc finger-like peptide with sequence shown in SEQ ID NO: 1, in which the fifth amino acid, serine was phosphorylated, and injected into nude mice.
In the present experimental group, zinc finger-like peptide with sequence shown in SEQ ID NO: 6 was injected into nude mice.
In the present experimental group, zinc finger-like peptide with sequence shown in SEQ ID NO: 6, in which the fourth amino acid serine was phosphorylated, and injected nude mice.
In the control group, H2O (100 μl) was injected into nude mice.

[6] = system: malignant prostate cancer DU145 cells; assay: Example 9: peptide pre-injection, malignant prostate cancer DU145 cells inoculated three months later, tumor volumes; settings: peptide 2 mM, 100 μl i.v. per week for 3 weeks, vs H2O control
Method: as §1, §2, §3
Nude mice were injected with an intravenous injection of peptide (2 mM, 100 μl) via tail veins per week for 3 consecutive weeks, followed by inoculating malignant prostate cancer DU145 cells (2 million cells/100 μl medium) at both the right and left flanks three months later. […]

[7] = system: prostatic epithelial cells PZ-HPV-7; assay: Example 10: peptide pre-injection, then prostatic epithelial cells PZ-HPV-7 inoculation, tumor volumes; settings: peptide 2 mM, 100 μl i.v. per week for 3 weeks; PZ-HPV-7 inoculated on the 20th and 90th day; vs H2O control
Method: as §1, §2, §3
Nude mice were injected with an intravenous injection of peptide (2 mM, 100 μl) via tail veins per week for 3 consecutive weeks, followed by inoculating prostatic epithelial cells PZ-HPV-7 (2 million cells/100 μl medium) at both the right and left flanks on the 20th day and the 90th day. […]

RRSSSCK [SEQ ID NO: 1, zinc finger-like peptide, manually synthesized]
tumor growth (tumor volumes) [1]: can prevent and inhibit the growth of cancer cell | tumor growth (tumor volumes) [2]: can inhibit the growth of skin melanoma on nude mice | growth and proliferation of tumor cells (tumor volumes) [3]: the growth and proliferation of tumor cells were not observed | concentration dependence of suppression on tumor cell growth ([4]; 2 mM vs 4 mM peptide, U87-MG): the suppression on tumor cell growth was getting significant as the concentration of the zinc finger-like peptide increased | growth and proliferation of tumor cells (tumor volumes) ([4]; peptide 2 mM): slower than that observed in the control group | growth and proliferation of tumor cells (tumor volumes) ([4]; peptide 4 mM): slower than that observed in the control group | skin cancer completely cured after [5]: 115 days | tumor growth / activity on skin cancer treatment ([5]; vs H2O control): can effectively inhibit the growth of tumor cells | growth and proliferation of tumor cells (tumor volumes) [6]: the growth and proliferation of tumor cells were not observed | growth and proliferation of tumor cells (tumor volumes) [7]: the growth and proliferation of tumor cells were not observed
